According to ChEMBL document CHEMBL1201862, “PubChem BioAssay data set” (2004):
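Five compound concentrations were applied to cells in 96-well plates for 48 hours; endpoints were derived by simple linear interpolation of the resulting dose-response curve. GI50: concentration for 50% inhibition of growth.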 Activity calls are given as the source filed them. No stated cut-off is given here; in the data, active = GI50 up to about 1.1 µM and inactive = higher.

What was measured:
Assay in all cases: growth of human tumour cells (NCI), 48 h
[1] = test system: MDA-MB-435
[2] = test system: NCI-H226
[3] = test system: OVCAR-8
[4] = test system: NCI-H522
[5] = test system: UO-31
[6] = test system: RXF 393
[7] = test system: HT-29
[8] = test system: A549
[9] = test system: SNB-19
[10] = test system: U-251
[11] = test system: HCT-116
[12] = test system: SF-295
[13] = test system: CAKI-1
[14] = test system: RPMI-8226
[15] = test system: Hs-578T
[16] = test system: HCC 2998
[17] = test system: MCF7
[18] = test system: 786-0
[19] = test system: SK-OV-3
[20] = test system: SN12C

| SMILES | GI50 [1] | GI50 [2] | GI50 [3] | GI50 [4] | GI50 [5] | GI50 [6] | GI50 [7] | GI50 [8] | GI50 [9] | GI50 [10] | GI50 [11] | GI50 [12] | GI50 [13] | GI50 [14] | GI50 [15] | GI50 [16] | GI50 [17] | GI50 [18] | GI50 [19] | GI50 [20] |
| --- | --- | --- | --- | --- | --- | --- | --- | --- | --- | --- | --- | --- | --- | --- | --- | --- | --- | --- | --- | --- |
| CN(c1ccccc1Cl)S(=O)(=O)c1ccc([N+](=O)[O-])cc1 | > 100 µM (inactive) | > 100 µM (inactive) | > 100 µM (inactive) | > 100 µM (inactive) | > 100 µM (inactive) | > 100 µM (inactive) | > 100 µM (inactive) | > 100 µM (inactive) | > 100 µM (inactive) | > 100 µM (inactive) | > 100 µM (inactive) | > 100 µM (inactive) | > 100 µM (inactive) | > 100 µM (inactive) | > 100 µM (inactive) | > 100 µM (inactive) | > 100 µM (inactive) | > 100 µM (inactive) | > 100 µM (inactive) | > 100 µM (inactive) |
| CC(C)(CN1CCCCC1)C(=O)/C=C/c1ccc(/C=C/C(=O)C(C)(C)CN2CCCCC2)cc1 | 0.421 µM (active) | 1.84 µM (inactive) | 1.02 µM (active) | 0.0454 µM (active) | 1.14 µM (inactive) | 0.28 µM (active) | 0.198 µM (active) | 0.933 µM (active) | 1.35 µM (inactive) | 0.273 µM (active) | 0.303 µM (active) | 0.661 µM (active) | 0.303 µM (active) | 0.193 µM (active) | 0.42 µM (active) | 0.35 µM (active) | 0.247 µM (active) | 0.446 µM (active) | 1.57 µM (inactive) | 0.208 µM (active) |
| O=C(O)[C@H]1NC[C@H]2C(Br)=NO[C@@H]12 | > 100 µM (inactive) | > 100 µM (inactive) | > 100 µM (inactive) | > 100 µM (inactive) | > 100 µM (inactive) | > 100 µM (inactive) | > 100 µM (inactive) | > 100 µM (inactive) | > 100 µM (inactive) | > 100 µM (inactive) | > 100 µM (inactive) | > 100 µM (inactive) | > 100 µM (inactive) | > 100 µM (inactive) | > 100 µM (inactive) | > 100 µM (inactive) | > 100 µM (inactive) | > 100 µM (inactive) | > 100 µM (inactive) | > 100 µM (inactive) |
| CN(C)c1n/c(=N/Cc2ccco2)ss1 | 20.5 µM (inactive) | 62.2 µM (inactive) | 31.7 µM (inactive) | 0.307 µM (active) | 28.8 µM (inactive) | 7.98 µM (inactive) | 2.44 µM (inactive) | 15.6 µM (inactive) | 60.5 µM (inactive) | 31.5 µM (inactive) | 8.97 µM (inactive) | 37.2 µM (inactive) | 30.5 µM (inactive) | 1.79 µM (inactive) | 29.6 µM (inactive) | 52.8 µM (inactive) | 16.4 µM (inactive) | 3.65 µM (inactive) | 55.6 µM (inactive) | 31.6 µM (inactive) |
| COc1cc(/C=C/C(=O)O)ccc1OS(=O)(=O)O | > 100 µM (inactive) | > 100 µM (inactive) | > 100 µM (inactive) | > 100 µM (inactive) | > 100 µM (inactive) | > 100 µM (inactive) | > 100 µM (inactive) | > 100 µM (inactive) | > 100 µM (inactive) | > 100 µM (inactive) | > 100 µM (inactive) | > 100 µM (inactive) | > 100 µM (inactive) | > 100 µM (inactive) | > 100 µM (inactive) | > 100 µM (inactive) | > 100 µM (inactive) | > 100 µM (inactive) | > 100 µM (inactive) | > 100 µM (inactive) |
| COc1cc2oc(-c3ccc(O)cc3)cc(=O)c2c(OC)c1O | > 100 µM (inactive) | > 100 µM (inactive) | 49.7 µM (inactive) | 29.8 µM (inactive) | 33.2 µM (inactive) | 29 µM (inactive) | > 100 µM (inactive) | 89.9 µM (inactive) | 45.4 µM (inactive) | 38.9 µM (inactive) | 54 µM (inactive) | 62.5 µM (inactive) | > 100 µM (inactive) | 89.9 µM (inactive) | 58.5 µM (inactive) | 96.8 µM (inactive) | > 100 µM (inactive) | 36 µM (inactive) | 30.5 µM (inactive) | 68.7 µM (inactive) |
